Test results reported in patent US20250122225A1, “MASP-2 INHIBITORS AND METHODS OF USE” (Omeros Corporation, priority 2023, published 2025).
Counter-ions that a name gives are not always drawn.

What was measured:
MASP-2 (CCP1-CCP2-SP) = target: T1, MASP-2 (CCP1-CCP2-SP) (Homo sapiens, UniProt O00187); assay: Enzymatic assay for MASP-2 inhibitory activity (fluorogenic substrate); type: biochemical
T1 construct: 15 μL of Enzyme MASP-2 (CCP1-CCP2-SP) in Assay Buffer
How it was run: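 Fluorescence was normalized between no-enzyme and DMSO-only controls to derive % activity, with IC50 taken as equivalent to Ki except for tight-binding inhibitors. Reactions ran 20 min at room temperature in HEPES pH 7.4/NaCl/Tween 20 buffer, using the C2-derived fluorogenic substrate, before acetic acid stop.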

human α-thrombin = target: T2, human α-thrombin (Homo sapiens, UniProt P00734); assay: Enzymatic assay for thrombin (fluorogenic peptide substrate Boc-VPR-AMC); type: biochemical
T2 construct: enzyme (human α-thrombin (BioPharm® Lab.)) in assay buffer; purchased BioPharm® Lab
How it was run: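 Assay conditions kept the reaction linear in time, enzyme and substrate, so IC50 approximated Ki apart from tight- or slow-binding cases. Boc-VPR-AMC cleavage by human α-thrombin proceeded 20 min at room temperature in Hepes pH 7.4/NaCl/Tween 20 buffer, then was acid-quenched and read by fluorescence.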

T1 sequence (O00187 445-686 limits assumed): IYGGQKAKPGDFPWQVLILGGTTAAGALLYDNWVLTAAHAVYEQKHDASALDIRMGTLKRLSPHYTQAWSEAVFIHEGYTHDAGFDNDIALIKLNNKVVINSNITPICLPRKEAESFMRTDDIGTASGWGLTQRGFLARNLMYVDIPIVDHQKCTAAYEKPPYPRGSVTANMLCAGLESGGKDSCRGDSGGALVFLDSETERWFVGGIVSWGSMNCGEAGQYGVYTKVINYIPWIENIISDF
T1 sequence (O00187 287-444 partner limits assumed): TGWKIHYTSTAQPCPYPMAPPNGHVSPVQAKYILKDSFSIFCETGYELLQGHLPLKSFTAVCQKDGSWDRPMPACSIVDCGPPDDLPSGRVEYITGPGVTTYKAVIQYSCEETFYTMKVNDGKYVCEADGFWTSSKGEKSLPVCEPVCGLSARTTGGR

A Ki (MASP-2 (CCP1-CCP2-SP)) of under 500 nM and a Ki (human α-thrombin) of 2500 to 10000 nM were found for O=C(NCc1cc2cnccc2[nH]1)[C@@H]1C[C@H](Cc2ccccc2)c2cnc(NC3CCC3)c(=O)n21 [Compound 142, (6S,8S)-N-((1H-pyrrolo[3,2-c]pyridin-2-yl)methyl)-8-benzyl-3-(cyclobutylamino)-4-oxo-4,6,7,8-tetrahydropyrrolo[1,2-a]pyrazine-6-carboxamide] in this work.

A Ki (MASP-2 (CCP1-CCP2-SP)) of under 500 nM and a Ki (human α-thrombin) of over 25000 nM were found for O=C(NCc1cc2cnccc2[nH]1)[C@@H]1CCc2c(Cl)nc(NCc3cccc(-c4ccccc4)c3)c(=O)n21 [Compound 143, (S)—N-((1H-pyrrolo[3,2-c]pyridin-2-yl)methyl)-3-(([1,1′-biphenyl]-3-ylmethyl)amino)-1-chloro-4-oxo-4,6,7,8-tetrahydropyrrolo[1,2-a]pyrazine-6-carboxamide] in this work.

A Ki (MASP-2 (CCP1-CCP2-SP)) of under 500 nM and a Ki (human α-thrombin) of 2500 to 10000 nM were found for N#Cc1cccc(CNc2nc(Cl)c3n(c2=O)[C@H](C(=O)NCc2cc4cnccc4[nH]2)CC3)c1 [Compound 144, (S)-N-((1H-pyrrolo[3,2-c]pyridin-2-yl)methyl)-1-chloro-3-((3-cyanobenzyl)amino)-4-oxo-4,6,7,8-tetrahydropyrrolo[1,2-a]pyrazine-6-carboxamide] in this work.

A Ki (MASP-2 (CCP1-CCP2-SP)) of under 500 nM and a Ki (human α-thrombin) of over 25000 nM were found for O=C(NCc1cc2cnccc2[nH]1)[C@@H]1CCc2c(Cl)nc(NCC3CCc4ccccc4C3)c(=O)n21 (stereo partly drawn) [Compound 145, (6S)-N-((1H-pyrrolo[3,2-c]pyridin-2-yl)methyl)-1-chloro-4-oxo-3-(((1,2,3,4-tetrahydronaphthalen-2-yl)methyl)amino)-4,6,7,8-tetrahydropyrrolo[1,2-a]pyrazine-6-carboxamide] in this work.

A Ki (MASP-2 (CCP1-CCP2-SP)) of 500 to 2500 nM and a Ki (human α-thrombin) of 10000 to 25000 nM were found for Cc1nc(N)ccc1CNC(=O)[C@@H]1CCc2c(Cl)nc(NCC3COC3)c(=O)n21 [Compound 146, (S)-N-((6-amino-2-methylpyridin-3-yl)methyl)-1-chloro-3-((oxetan-3-ylmethyl)amino)-4-oxo-4,6,7,8-tetrahydropyrrolo[1,2-a]pyrazine-6-carboxamide] in this work.

A Ki (MASP-2 (CCP1-CCP2-SP)) of under 500 nM and a Ki (human α-thrombin) of 2500 to 10000 nM were found for O=C(NCc1cc2cnccc2[nH]1)[C@@H]1CCc2cnc(NCc3cccc(-c4ccccc4)c3)c(=O)n21 [Compound 147, (S)—N-((1H-pyrrolo[3,2-c]pyridin-2-yl)methyl)-3-(([1,1′-biphenyl]-3-ylmethyl)amino)-4-oxo-4,6,7,8-tetrahydropyrrolo[1,2-a]pyrazine-6-carboxamide] in this work.

A Ki (MASP-2 (CCP1-CCP2-SP)) of under 500 nM and a Ki (human α-thrombin) of 500 to 2500 nM were found for O=C(NCc1cc2cnccc2[nH]1)[C@@H]1CCc2cnc(NCC3CCc4ccccc4C3)c(=O)n21 (stereo partly shown) [Compound 148] in this work.

A Ki (MASP-2 (CCP1-CCP2-SP)) of under 500 nM and a Ki (human α-thrombin) of 2500 to 10000 nM were found for Cc1nc(N)ccc1CNC(=O)C1CCc2c(Cl)nc(NCc3cnccn3)c(=O)n21 (stereo not shown) [Compound 149, N-((6-amino-2-methylpyridin-3-yl)methyl)-1-chloro-4-oxo-3-((pyrazin-2-ylmethyl)amino)-4,6,7,8-tetrahydropyrrolo[1,2-a]pyrazine-6-carboxamide] in this work.

A Ki (MASP-2 (CCP1-CCP2-SP)) of under 500 nM and a Ki (human α-thrombin) of 2500 to 10000 nM were found for Cc1nc(N)ccc1CNC(=O)C1CCc2c(Cl)nc(NCc3cncnc3)c(=O)n21 (stereo not shown) [Compound 150] in this work.

A Ki (MASP-2 (CCP1-CCP2-SP)) of under 500 nM and a Ki (human α-thrombin) of 500 to 2500 nM were found for CC[C@H]1C[C@@H](C(=O)NCc2cc3cnccc3[nH]2)n2c1cnc(NCc1ccccc1)c2=O [Compound 151, (6S,8S)—N-((1H-pyrrolo[3,2-c]pyridin-2-yl)methyl)-3-(benzylamino)-8-ethyl-4-oxo-4,6,7,8-tetrahydropyrrolo[1,2-a]pyrazine-6-carboxamide] in this work.

A Ki (MASP-2 (CCP1-CCP2-SP)) of under 500 nM and a Ki (human α-thrombin) of 2500 to 10000 nM were found for C[C@H]1C[C@@H](C(=O)NCc2cc3cnccc3[nH]2)n2c1cnc(NCc1ccccc1)c2=O [Compound 152, (6S,8S)-N-((1H-pyrrolo[3,2-c]pyridin-2-yl)methyl)-3-(benzylamino)-8-methyl-4-oxo-4,6,7,8-tetrahydropyrrolo[1,2-a]pyrazine-6-carboxamide] in this work.

A Ki (MASP-2 (CCP1-CCP2-SP)) of under 500 nM and a Ki (human α-thrombin) of 2500 to 10000 nM were found for Cc1cc(C)cc(CNc2ncc3n(c2=O)[C@H](C(=O)NCc2cc4cnccc4[nH]2)C[C@@H]3C)c1 [Compound 153, (6S,8S)-N-((1H-pyrrolo[3,2-c]pyridin-2-yl)methyl)-3-((3,5-dimethylbenzyl)amino)-8-methyl-4-oxo-4,6,7,8-tetrahydropyrrolo[1,2-a]pyrazine-6-carboxamide] in this work.

A Ki (MASP-2 (CCP1-CCP2-SP)) of under 500 nM and a Ki (human α-thrombin) of under 500 nM were found for CC[C@H]1C[C@@H](C(=O)NCc2ccc(N)nc2C)n2c1cnc(NCc1ccccc1)c2=O [Compound 154, (6S,8S)-N-((6-amino-2-methylpyridin-3-yl)methyl)-3-(benzylamino)-8-ethyl-4-oxo-4,6,7,8-tetrahydropyrrolo[1,2-a]pyrazine-6-carboxamide] in this work.

A Ki (MASP-2 (CCP1-CCP2-SP)) of under 500 nM and a Ki (human α-thrombin) of under 500 nM were found for CC[C@H]1C[C@@H](C(=O)NCc2ccc(N)nc2C)n2c1cnc(NCc1cc(C)cc(C)c1)c2=O [Compound 156, (6S,8S)-N-((6-amino-2-methylpyridin-3-yl)methyl)-3-((3,5-dimethylbenzyl)amino)-8-ethyl-4-oxo-4,6,7,8-tetrahydropyrrolo[1,2-a]pyrazine-6-carboxamide] in this work.

A Ki (MASP-2 (CCP1-CCP2-SP)) of under 500 nM and a Ki (human α-thrombin) of under 500 nM were found for CC[C@H]1C[C@@H](C(=O)NCc2ccc(N)nc2)n2c1cnc(NCc1cc(C)cc(C)c1)c2=O [Compound 157, (6S,8S)-N-((6-aminopyridin-3-yl)methyl)-3-((3,5-dimethylbenzyl)amino)-8-ethyl-4-oxo-4,6,7,8-tetrahydropyrrolo[1,2-a]pyrazine-6-carboxamide] in this work.

A Ki (MASP-2 (CCP1-CCP2-SP)) of under 500 nM and a Ki (human α-thrombin) of 2500 to 10000 nM were found for CC[C@H]1C[C@@H](C(=O)NCc2cc3c(s2)CNC3)n2c1c(Cl)nc(NCc1ccccc1)c2=O [Compound 158, (6S,8S)-3-(benzylamino)-1-chloro-N-((5,6-dihydro-4H-thieno[2,3-c]pyrrol-2-yl)methyl)-8-ethyl-4-oxo-4,6,7,8-tetrahydropyrrolo[1,2-a]pyrazine-6-carboxamide hydrochloride] in this work.

A Ki (MASP-2 (CCP1-CCP2-SP)) of under 500 nM and a Ki (human α-thrombin) of 10000 to 25000 nM were found for CC[C@H]1C[C@@H](C(=O)NCc2cc3cnccc3[nH]2)n2c1c(Cl)nc(NCc1ccccc1)c2=O [Compound 159, (6S,8S)—N-((1H-pyrrolo[3,2-c]pyridin-2-yl)methyl)-3-(benzylamino)-1-chloro-8-ethyl-4-oxo-4,6,7,8-tetrahydropyrrolo[1,2-a]pyrazine-6-carboxamide] in this work.

A Ki (MASP-2 (CCP1-CCP2-SP)) of under 500 nM and a Ki (human α-thrombin) of over 25000 nM were found for CC[C@H]1C[C@@H](C(=O)NCc2cc3cnccc3[nH]2)n2c1c(Cl)nc(NCc1cc(C)cc(C)c1)c2=O [Compound 160, (6S,8S)-N-((1H-pyrrolo[3,2-c]pyridin-2-yl)methyl)-1-chloro-3-((3,5-dimethylbenzyl)amino)-8-ethyl-4-oxo-4,6,7,8-tetrahydropyrrolo[1,2-a]pyrazine-6-carboxamide] in this work.

A Ki (MASP-2 (CCP1-CCP2-SP)) of under 500 nM and a Ki (human α-thrombin) of 500 to 2500 nM were found for CC[C@H]1C[C@@H](C(=O)NCc2cc3c(s2)CNC3)n2c1cnc(NCc1ccccc1)c2=O [Compound 161, (6S,8S)-3-(benzylamino)-N-((5,6-dihydro-4H-thieno[2,3-c]pyrrol-2-yl)methyl)-8-ethyl-4-oxo-4,6,7,8-tetrahydropyrrolo[1,2-a]pyrazine-6-carboxamide hydrochloride] in this work.

A Ki (MASP-2 (CCP1-CCP2-SP)) of under 500 nM and a Ki (human α-thrombin) of over 25000 nM were found for O=C(NCc1cc2cnccc2[nH]1)[C@@H]1CCc2c(Cl)nc(NCc3ccc4c(c3)CCCC4)c(=O)n21 [Compound 162, (S)—N-((1H-pyrrolo[3,2-c]pyridin-2-yl)methyl)-1-chloro-4-oxo-3-(((5,6,7,8-tetrahydronaphthalen-2-yl)methyl)amino)-4,6,7,8-tetrahydropyrrolo[1,2-a]pyrazine-6-carboxamide] in this work.
